# Results reported in ChEMBL document CHEMBL2434896, “Carbonic anhydrase inhibitors. Synthesis of heterocyclic 4-substituted pyridine-3-sulfonamide derivatives and their inhibition of the human cytosolic isozymes I and II and transmembrane tumor-associated isozymes IX and XII” (Eur J Med Chem, 2013).
# The source made the active and inactive calls. The rule behind the calls is not given here.
# What was measured:
# [1] = system: TK-10; test: Growth inhibition of human TK10 cells at 10 uM after 48 hrs by sulforhodamine B assay; assay type: functional
# [2] = system: MDA-MB-435; test: Growth inhibition of human MDA-MB-435 cells at 10 uM after 48 hrs by sulforhodamine B assay; assay type: functional
# [3] = system: Hs-578T; test: Growth inhibition of human Hs 578T cells at 10 uM after 48 hrs by sulforhodamine B assay; assay type: functional
# [4] = system: T47D; test: Growth inhibition of human T47D cells at 10 uM after 48 hrs by sulforhodamine B assay; assay type: functional
# [5] = system: SK-MEL-5; test: Growth inhibition of human SK-MEL-5 cells at 10 uM after 48 hrs by sulforhodamine B assay; assay type: functional
# [6] = system: RXF 393; test: Growth inhibition of human RXF393 cells at 10 uM after 48 hrs by sulforhodamine B assay; assay type: functional
# [7] = system: 786-0; test: Growth inhibition of human 786-0 cells at 10 uM after 48 hrs by sulforhodamine B assay; assay type: functional; details: 786-0, 48 h, read-out: GI
# [8] = system: SF-539; test: Growth inhibition of human SF539 cells at 10 uM after 48 hrs by sulforhodamine B assay; assay type: functional
# [9] = system: MDA-MB-231; test: Growth inhibition of human MDA-MB-231 cells at 10 uM after 48 hrs by sulforhodamine B assay; assay type: functional
# [10] = system: NCI-H322M; test: Growth inhibition of human NCI-H322M cells at 10 uM after 48 hrs by sulforhodamine B assay; assay type: functional
# [11] = system: SF-268; test: Growth inhibition of human SF268 cells at 10 uM after 48 hrs by sulforhodamine B assay; assay type: functional
# [12] = system: BT-549; test: Growth inhibition of human BT549 cells at 10 uM after 48 hrs by sulforhodamine B assay; assay type: functional; details: BT-549, 48 h, read-out: GI
# [13] = system: MDA-MB-468; test: Growth inhibition of human MDA-MB-468 cells at 10 uM after 48 hrs by sulforhodamine B assay; assay type: functional
# [14] = molecular target: Carbonic anhydrase 9 (Homo sapiens, UniProt Q16790); test: Inhibition of human carbonic anhydrase 9 after 15 mins by stopped flow CO2 hydration assay
# [15] = system: OVCAR-3; test: Growth inhibition of human OVCAR3 cells at 10 uM after 48 hrs by sulforhodamine B assay; assay type: functional
# [16] = system: PC-3; test: Growth inhibition of human PC3 cells at 10 uM after 48 hrs by sulforhodamine B assay; assay type: functional; details: PC-3, 48 h, read-out: GI
# [17] = system: LOX IMVI; test: Growth inhibition of human LOXIMVI cells at 10 uM after 48 hrs by sulforhodamine B assay; assay type: functional
# [18] = system: A498; test: Growth inhibition of human A498 cells at 10 uM after 48 hrs by sulforhodamine B assay; assay type: functional
# [19] = system: NCI-H226; test: Growth inhibition of human NCI-H226 cells at 10 uM after 48 hrs by sulforhodamine B assay; assay type: functional
# [20] = system: SK-OV-3; test: Growth inhibition of human SKOV3 cells at 10 uM after 48 hrs by sulforhodamine B assay; assay type: functional
# [21] = system: MCF7; test: Growth inhibition of human MCF7 cells at 10 uM after 48 hrs by sulforhodamine B assay; assay type: functional; details: MCF7, 48 h, read-out: GI
# [22] = system: SW-620; test: Growth inhibition of human SW620 cells at 10 uM after 48 hrs by sulforhodamine B assay; assay type: functional
# [23] = system: SR; test: Growth inhibition of human SR cells at 10 uM after 48 hrs by sulforhodamine B assay; assay type: functional; details: read-out: GI
# [24] = system: CCRF-CEM; test: Growth inhibition of human CCRF-CEM cells at 10 uM after 48 hrs by sulforhodamine B assay; assay type: functional; details: read-out: GI
# [25] = system: K562; test: Growth inhibition of human K562 cells at 10 uM after 48 hrs by sulforhodamine B assay; assay type: functional
# [26] = system: OVCAR-5; test: Growth inhibition of human OVCAR5 cells at 10 uM after 48 hrs by sulforhodamine B assay; assay type: functional
# [27] = system: MOLT-4; test: Growth inhibition of human MOLT4 cells at 10 uM after 48 hrs by sulforhodamine B assay; assay type: functional
# [28] = system: A549; test: Growth inhibition of human A549/ATCC cells at 10 uM after 48 hrs by sulforhodamine B assay; assay type: functional; details: A549, 48 h, read-out: GI
# [29] = system: CAKI-1; test: Growth inhibition of human CAKI-1 cells at 10 uM after 48 hrs by sulforhodamine B assay; assay type: functional; details: CAKI-1, 48 h, read-out: GI
# [30] = system: SN12C; test: Growth inhibition of human SN12C cells at 10 uM after 48 hrs by sulforhodamine B assay; assay type: functional
# [31] = system: OVCAR-4; test: Growth inhibition of human OVCAR4 cells at 10 uM after 48 hrs by sulforhodamine B assay; assay type: functional
# [32] = system: HOP-92; test: Growth inhibition of human HOP92 cells at 10 uM after 48 hrs by sulforhodamine B assay; assay type: functional; details: HOP-92, 48 h, read-out: GI
# [33] = system: IGROV-1; test: Growth inhibition of human IGROV1 cells at 10 uM after 48 hrs by sulforhodamine B assay; assay type: functional
# [34] = system: OVCAR-8; test: Growth inhibition of human OVCAR8 cells at 10 uM after 48 hrs by sulforhodamine B assay; assay type: functional; details: OVCAR-8, 48 h, read-out: GI
# [35] = system: DU-145; test: Growth inhibition of human DU145 cells at 10 uM after 48 hrs by sulforhodamine B assay; assay type: functional
# [36] = system: ACHN; test: Growth inhibition of human ACHN cells at 10 uM after 48 hrs by sulforhodamine B assay; assay type: functional
# [37] = system: Malme-3M; test: Growth inhibition of human MALME-3M cells at 10 uM after 48 hrs by sulforhodamine B assay; assay type: functional; details: read-out: GI
# [38] = system: SNB-75; test: Growth inhibition of human SNB75 cells at 10 uM after 48 hrs by sulforhodamine B assay; assay type: functional; details: SNB-75, 48 h, read-out: GI
# [39] = system: HCT-116; test: Growth inhibition of human HCT116 cells at 10 uM after 48 hrs by sulforhodamine B assay; assay type: functional; details: HCT-116, 48 h, read-out: GI
# [40] = system: COLO 205; test: Growth inhibition of human COLO205 cells at 10 uM after 48 hrs by sulforhodamine B assay; assay type: functional
# [41] = system: U-251; test: Growth inhibition of human U251 cells at 10 uM after 48 hrs by sulforhodamine B assay; assay type: functional; details: U-251, 48 h, read-out: GI
# [42] = system: NCI-H460; test: Growth inhibition of human NCI-H460 cells at 10 uM after 48 hrs by sulforhodamine B assay; assay type: functional
# [43] = system: UACC-62; test: Growth inhibition of human UACC62 cells at 10 uM after 48 hrs by sulforhodamine B assay; assay type: functional
# [44] = system: SK-MEL-2; test: Growth inhibition of human SK-MEL-2 cells at 10 uM after 48 hrs by sulforhodamine B assay; assay type: functional
# [45] = system: UO-31; test: Growth inhibition of human UO31 cells at 10 uM after 48 hrs by sulforhodamine B assay; assay type: functional; details: UO-31, 48 h, read-out: GI
# [46] = system: M14; test: Growth inhibition of human M14 cells at 10 uM after 48 hrs by sulforhodamine B assay; assay type: functional
# [47] = system: SF-295; test: Growth inhibition of human SF295 cells at 10 uM after 48 hrs by sulforhodamine B assay; assay type: functional
# [48] = system: HCC 2998; test: Growth inhibition of human HCC2998 cells at 10 uM after 48 hrs by sulforhodamine B assay; assay type: functional
smiles,measurement,setting,value
CCc1cc(CC)n(-c2ccncc2S(N)(=O)=O)n1,growth inhibition (GI),[1],inactive
same,growth inhibition (GI),[2],inactive
same,growth inhibition (GI),[3],inactive
same,growth inhibition (GI),[4],inactive
same,growth inhibition (GI),[5],inactive
same,growth inhibition (GI),[6],inactive
same,inhibition of growth at 10 µM,[7],2%
same,inhibition of growth at 10 µM,"[8]; SF-539, 48 h, read-out: GI",4%
same,growth inhibition (GI),[9],inactive
same,growth inhibition (GI),[10],inactive
same,growth inhibition (GI),[11],inactive
same,inhibition of growth at 10 µM,[12],2%
same,growth inhibition (GI),[13],inactive
same,Ki,[14],31.7 nM
same,inhibition of growth at 10 µM,"[15]; OVCAR-3, 48 h, read-out: GI",1%
same,inhibition of growth at 10 µM,[16],1%
same,growth inhibition (GI),[17],inactive
same,growth inhibition (GI),[18],inactive
same,growth inhibition (GI),[19],inactive
same,inhibition of growth at 10 µM,"[20]; SK-OV-3, 48 h, read-out: GI",6%
same,inhibition of growth at 10 µM,[21],10%
same,growth inhibition (GI),[22],inactive
same,inhibition of growth at 10 µM,[23],5%
same,inhibition of growth at 10 µM,[24],4%
same,growth inhibition (GI),[25],inactive
same,growth inhibition (GI),[26],inactive
same,inhibition of growth at 10 µM,"[27]; MOLT-4, 48 h, read-out: GI",2%
same,inhibition of growth at 10 µM,[28],1%
same,inhibition of growth at 10 µM,[29],1%
same,growth inhibition (GI),[30],inactive
same,inhibition of growth at 10 µM,"[31]; OVCAR-4, 48 h, read-out: GI",4%
same,inhibition of growth at 10 µM,[32],1%
same,growth inhibition (GI),[33],inactive
same,inhibition of growth at 10 µM,[34],9%
same,growth inhibition (GI),[35],inactive
same,growth inhibition (GI),[36],inactive
same,inhibition of growth at 10 µM,[37],9%
same,inhibition of growth at 10 µM,[38],3%
same,inhibition of growth at 10 µM,[39],1%
same,inhibition of growth at 10 µM,"[40]; COLO 205, 48 h, read-out: GI",13%
same,inhibition of growth at 10 µM,[41],1%
same,growth inhibition (GI),[42],inactive
same,growth inhibition (GI),[43],inactive
same,growth inhibition (GI),[44],inactive
same,inhibition of growth at 10 µM,[45],8%
same,growth inhibition (GI),[46],inactive
same,growth inhibition (GI),[47],inactive
NS(=O)(=O)c1cnccc1N1CCN(c2ccccn2)CC1,growth inhibition (GI),[1],inactive
same,inhibition of growth at 10 µM,"[2]; MDA-MB-435, 48 h, read-out: GI",2%
same,inhibition of growth at 10 µM,[4]; read-out: GI,8%
same,growth inhibition (GI),[5],inactive
same,growth inhibition (GI),[6],inactive
same,growth inhibition (GI),[48],inactive
same,inhibition of growth at 10 µM,[7],2%
same,growth inhibition (GI),[8],inactive
same,growth inhibition (GI),[9],inactive
same,growth inhibition (GI),[10],inactive
same,growth inhibition (GI),[11],inactive
same,inhibition of growth at 10 µM,[12],6%
same,inhibition of growth at 10 µM,"[13]; MDA-MB-468, 48 h, read-out: GI",1%
same,Ki,[14],113 nM
same,growth inhibition (GI),[15],inactive
same,inhibition of growth at 10 µM,[16],1%
same,inhibition of growth at 10 µM,[17]; read-out: GI,9%
same,inhibition of growth at 10 µM,"[18]; A498, 48 h, read-out: GI",24%
same,inhibition of growth at 10 µM,"[19]; NCI-H226, 48 h, read-out: GI",5%
same,growth inhibition (GI),[20],inactive
same,inhibition of growth at 10 µM,[21],3%
same,inhibition of growth at 10 µM,"[22]; SW-620, 48 h, read-out: GI",1%
same,inhibition of growth at 10 µM,[23],12%
same,inhibition of growth at 10 µM,[24],5%
same,inhibition of growth at 10 µM,"[25]; K562, 48 h, read-out: GI",4%
same,growth inhibition (GI),[26],inactive
same,growth inhibition (GI),[27],inactive
same,inhibition of growth at 10 µM,[28],2%
same,inhibition of growth at 10 µM,[29],10%
same,inhibition of growth at 10 µM,[30]; read-out: GI,4%
same,growth inhibition (GI),[31],inactive
same,inhibition of growth at 10 µM,[32],11%
same,growth inhibition (GI),[33],inactive
same,inhibition of growth at 10 µM,[34],12%
same,inhibition of growth at 10 µM,"[35]; DU-145, 48 h, read-out: GI",8%
same,growth inhibition (GI),[36],inactive
same,inhibition of growth at 10 µM,[37],8%
same,inhibition of growth at 10 µM,[38],12%
same,inhibition of growth at 10 µM,[39],1%
same,growth inhibition (GI),[40],inactive
same,inhibition of growth at 10 µM,[41],6%
same,growth inhibition (GI),[42],inactive
same,growth inhibition (GI),[43],inactive
same,inhibition of growth at 10 µM,"[44]; SK-MEL-2, 48 h, read-out: GI",1%
same,inhibition of growth at 10 µM,[45],11%
same,growth inhibition (GI),[46],inactive
same,growth inhibition (GI),[47],inactive
